Laboratory results published in paper PMC12797170, “Potent Competitive Inhibitors of Ecto-5′-nucleotidase (CD73) based on 6‑(Het)aryl-7-deazapurine Ribonucleoside 5′‑O‑Bisphosphonates” (ACS Pharmacology & Translational Science, 2025).
Converted amounts (≈) assume the structure as drawn.

Assays:
[1] = molecular target: T1, recombinant human CD73 (hCD73) (Homo sapiens, UniProt P21589); assay: CD73 activity assay on recombinant human CD73; type: biochemical; settings: ΔGexp = RT ln Ki
T1 sequence (P21589 27-574): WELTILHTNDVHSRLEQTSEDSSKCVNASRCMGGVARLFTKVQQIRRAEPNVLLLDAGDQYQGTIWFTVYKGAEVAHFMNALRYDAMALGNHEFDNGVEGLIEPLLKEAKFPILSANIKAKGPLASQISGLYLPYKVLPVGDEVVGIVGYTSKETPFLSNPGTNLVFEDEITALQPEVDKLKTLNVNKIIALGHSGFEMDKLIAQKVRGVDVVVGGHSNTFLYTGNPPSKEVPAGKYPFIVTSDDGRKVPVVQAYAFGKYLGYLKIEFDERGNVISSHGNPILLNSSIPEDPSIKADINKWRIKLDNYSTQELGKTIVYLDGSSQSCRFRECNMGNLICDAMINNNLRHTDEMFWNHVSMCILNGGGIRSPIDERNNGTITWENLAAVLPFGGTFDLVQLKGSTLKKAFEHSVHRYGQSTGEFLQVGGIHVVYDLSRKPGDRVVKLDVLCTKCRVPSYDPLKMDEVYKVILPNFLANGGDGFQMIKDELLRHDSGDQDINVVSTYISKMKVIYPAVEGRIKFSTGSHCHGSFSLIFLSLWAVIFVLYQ

[2] = Plasma protein binding, equilibrium dialysis, human plasma; type: in vitro ADME; settings: undiluted plasma
[3] = Plasma protein binding, mouse plasma; type: in vitro ADME; settings: mouse, plasma, mouse plasma protein binding; read-out: PPB (m) (converted)
[4] = Kinetic solubility in PBS; type: physicochemical; settings: phosphate-buffered saline, pH 7.4, aqueous buffer, kinetic from dmso stock
Outline: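 DMSO stocks diluted into PBS pH 7.4 to 100 μM and shaken 2 h at room temperature in duplicate, then filtered by centrifugation. Filtrates diluted 1:99 in 50% acetonitrile. Quantified by Echo-MS against calibration standards spanning 0.05–4 μM.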

[5] = Microsomal stability assay, human liver microsomes; type: in vitro ADME; settings: for Mics (hu) comp remaining 60 min: 10 μM; for microsomal CLint at 10 µM: pooled liver microsomes, pH 7.4, read-out: Mics (hu) CLint
[6] = Microsomal stability assay, mouse liver microsomes; type: in vitro ADME; settings: for Mics (m) comp remaining 60 min: 10 μM; for microsomal CLint at 10 µM: pooled liver microsomes, pH 7.4, read-out: Mics (m) CLint
[7] = test system: CCRF-CEM; assay: In vitro cytotoxic activity; type: cell-based; settings: Homo sapiens
Experimental: (§1) All the compounds were also tested for their in vitro cytotoxic activity on a small panel of four cancer cell lines (CCRF-CEM, HepG2, HeLa S3, HL-60) and nonmalignant human dermal fibroblasts (NHDF).

[8] = test system: HL-60; assay: In vitro cytotoxic activity; type: cell-based; settings: Homo sapiens
Experimental: as §1

[9] = test system: HeLa S3; assay: In vitro cytotoxic activity; type: cell-based; settings: Homo sapiens
Experimental: as §1

[10] = test system: HepG2; assay: In vitro cytotoxic activity; type: cell-based; settings: Homo sapiens
Experimental: as §1

[11] = test system: nonmalignant human dermal fibroblasts (NHDF); assay: In vitro cytotoxic activity; type: cell-based
Experimental: as §1

[12] = in vitro; settings: human, plasma
[13] = in vitro; settings: mouse, plasma
[14] = human plasma protein binding, read-out: PPB (hu) (converted)

Compound	dG_exp, experimental binding free energy [1]	fraction unbound at 4 h, 100 µM [2, 14]	fraction unbound at 4 h, 100 µM [3]	solubility at 2 h [4] [µM]	Mics (hu) comp remaining 60 min [5] [%]	microsomal CLint at 10 µM [5] [µL/min/mg]	Mics (m) comp remaining 60 min [6] [%]	microsomal CLint at 10 µM [6] [µL/min/mg]	IC50 [7] [µM]	IC50 [8] [µM]	IC50 [9] [µM]	IC50 [10] [µM]	IC50 [11] [µM]	half-life at 10 µM [12] [min]	half-life at 10 µM [13] [min]	fraction unbound at 4 h, 100 µM ([2]; Tables 1 and 3, human plasma as printed in footnote, read-out: fup, fraction unbound in human plasma)
O=P(O)(O)CP(=O)(O)OC[C@H]1O[C@@H](n2ccc3c(-c4ccc5ccccc5c4)nc(F)nc32)[C@H](O)[C@@H]1O [14D.7]	–14.2 kcal/mol	0.024	0.183	85 (≈ 47 µg/mL)	112	< 1	105	< 1	> 10	> 10	> 10	> 10	> 10	> 120	> 120	–
O=P(O)(O)CP(=O)(O)OC[C@H]1O[C@@H](n2ccc3c(-c4ccc5ncccc5c4)ncnc32)[C@H](O)[C@@H]1O [4A.19]	–12.7 kcal/mol	0.048	0.685	85 (≈ 45.6 µg/mL)	94	< 1	105	< 1	> 10	3.1	> 10	> 10	> 10	> 120	> 120	–
Cc1nc(-c2cccc3c2CCCC3)c2ccn([C@@H]3O[C@H](COP(=O)(O)CP(=O)(O)O)[C@@H](O)[C@H]3O)c2n1 [18E.12]	–14.4 kcal/mol	0.022	0.323	80 (≈ 44.3 µg/mL)	108	< 1	106	< 1	> 10	> 10	> 10	> 10	> 10	> 120	> 120	–
Nc1nc(-c2cccc3c2CCCC3)c2ccn([C@@H]3O[C@H](COP(=O)(O)CP(=O)(O)O)[C@@H](O)[C@H]3O)c2n1 [11C.12]	–13.9 kcal/mol	0.157	0.445	88 (≈ 48.8 µg/mL)	101	< 1	100	< 1	> 10	> 10	> 10	> 10	> 10	> 120	> 120	–
O=P(O)(O)CP(=O)(O)OC[C@H]1O[C@@H](n2ccc3c(-c4cnc5ccccc5c4)ncnc32)[C@H](O)[C@@H]1O [4A.20]	–12.8 kcal/mol	0.054	0.536	> 100	88	2	110	< 1	> 10	> 10	> 10	> 10	> 10	> 120	> 120	–
O=P(O)(O)CP(=O)(O)OC[C@H]1O[C@@H](n2ccc3c(-c4cc5ccccc5o4)nc(F)nc32)[C@H](O)[C@@H]1O [14D.8]	–14.3 kcal/mol	0.008	0.286	76 (≈ 41.3 µg/mL)	107	< 1	–	< 1	> 10	> 10	> 10	> 10	> 10	> 120	> 120	–
O=P(O)(O)CP(=O)(O)OC[C@H]1O[C@@H](n2ccc3c(-c4ccc5c(c4)CCO5)ncnc32)[C@H](O)[C@@H]1O [4A.14]	–12.9 kcal/mol	0.062	0.547	> 100	112	< 1	94	3	> 10	6.6	> 10	6.3	5.6	> 120	> 120	–
O=P(O)(O)CP(=O)(O)OC[C@H]1O[C@@H](n2ccc3c(-c4ccc5cncnc5c4)ncnc32)[C@H](O)[C@@H]1O [4A.22]	–12.9 kcal/mol	0.113	0.948	66 (≈ 35.5 µg/mL)	92	4	101	< 1	9.9	4.8	> 10	> 10	> 10	> 120	> 120	–
CNc1nc(-c2ccc3ccccc3c2)c2ccn([C@@H]3O[C@H](COP(=O)(O)CP(=O)(O)O)[C@@H](O)[C@H]3O)c2n1 [22G.7, [(5-{[2-(N-Methylamino)-4-(naphthalen-2-yl)-7H-pyrrolo[2,3-d]pyrimidin-7-yl]-β-D-ribofuranosyl}oxy)phosphonomethyl]phosphonic Acid]	–12.7 kcal/mol	≤ 0.01	0.112	84 (≈ 47.4 µg/mL)	106	< 1	–	3	> 10	8.1	> 10	> 10	> 10	> 120	> 120	0.11
